US20240390515A1, “MULTIDOSE OPHTHALMIC COMPOSITIONS” (Oculis Operations Sàrl, priority 2022, published 2024)

Experiments:
[1] = cited from earlier work
[2] = tested on: Pseudomonas aeruginosa, Staphylococcus aureus, Candida albicans, Aspergillus brasiliensis, Escherichia coli; assay: Antimicrobial Efficacy Test (AET) according to USP-NF monograph <51>; type: cell-based; conditions: dexamethasone eye drops, pH 5.0, USP-NF AET methodology
Protocol: For assessing the antimicrobial preservative agents, an Antimicrobial Efficacy Test (AET) is performed according to both USP-NF and EP standards • USP-NF: “American Pharmacopoeia” monograph <51> • EP: “European Pharmacopoeia” monograph […]
Those AETs consist in challenging the drug formulation containing an antimicrobial preservative agent at a certain concentration with specific microbial strains. The results are provided in microbial reduction expressed in logarithmic units. The acceptance criteria are specific of each standard (either US or EU) according to the table below. For being declared as passing the test, all the criteria must be achieved over the 28 days period. If at least one criterion is missed, then the whole test is declared failed.
AET acceptance criteria (microbial burden reduction in Log units)
Based on current knowledge those three microbial challenge tests (AETs), also known in the past as preservative efficacy tests (PET), are known to be more or less difficult to pass. EP/A test is known to be the most difficult one to pass. EB/B is less difficult than EB/A. USP-NF test is usually less difficult or sometimes equivalent to EP/B.

Compound | Water solubility (at 20° C.) [1] | Temperature Stability ([1]; in words) | minimum effective dose of potassium sorbate used as an antimicrobial agent [2] [% w/v] | solubility in water ([1]; in words) | Log P(octanol/water) ([1]; octanol/water)
CCCCOC(=O)c1ccc(O)cc1 [BPB, butyl paraben] | Low (0.25%) | Yes |  |  | 
C/C=C/C=C/C(=O)[O-].[K+] [KS, Potassium sorbate] | Good (>50%) | Medium | 0.235 |  | 
C/C=C/C=C/C(=O)O [SA, (2E,4E)-hexa-2,4-dienoic acid] | Low (0.15%) | Low |  | slightly soluble in water | 1.3
